Measurements as given in PubChem BioAssay (NCI).
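Results reflect a 48-hour exposure of cells in 96-well plates to compound at five concentrations. TGI marks complete inhibition of growth.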

Columns and labels:
Test in all cases: NCI-60 cell line screen, 48 h
786-0 renal = system: 786-0 renal
COLO 205 colon = system: COLO 205 colon
HS 578T breast = system: HS 578T breast
HT29 colon = system: HT29 colon
LOX IMVI melanoma = system: LOX IMVI melanoma
NCI-H226 lung = system: NCI-H226 lung
RPMI-8226 leukemia = system: RPMI-8226 leukemia
SF-268 CNS = system: SF-268 CNS
U251 CNS = system: U251 CNS
OVCAR-3 ovarian = system: OVCAR-3 ovarian

O=c1/c(=C/c2ccc(-c3ccc(Cl)cc3Cl)o2)sc2n1[C@@H](c1ccc3c(c1)OCO3)C=C(c1cc(F)c(Cl)cc1Cl)N=2
TGI (786-0 renal): > 100 µM
TGI (COLO 205 colon): > 100 µM
TGI (HS 578T breast): > 100 µM
TGI (HT29 colon): 74.7 µM
TGI (LOX IMVI melanoma): > 100 µM
TGI (NCI-H226 lung): > 100 µM
TGI (RPMI-8226 leukemia): 88 µM
TGI (SF-268 CNS): > 100 µM
TGI (U251 CNS): > 100 µM

C=C(C(=O)OC)[C@H]1CC/C(C)=C/CC/C(C)=C/CC[C@@]2(C)O[C@@H]2C1
TGI (786-0 renal): 29.2 µM
TGI (COLO 205 colon): 28.6 µM
TGI (HT29 colon): 34.4 µM
TGI (LOX IMVI melanoma): 28.8 µM
TGI (NCI-H226 lung): 44.4 µM
TGI (OVCAR-3 ovarian): 34.4 µM
TGI (RPMI-8226 leukemia): 32.8 µM
TGI (U251 CNS): 44 µM

CC(C)CC(NC(=O)C(COc1ccc([N+](=O)[O-])cc1)Cc1ccccc1)C(=O)Nc1ccccc1 (configuration not stated)
TGI (786-0 renal): 29.5 µM
TGI (COLO 205 colon): > 100 µM
TGI (LOX IMVI melanoma): > 100 µM
TGI (NCI-H226 lung): 16.1 µM
TGI (OVCAR-3 ovarian): > 100 µM
TGI (RPMI-8226 leukemia): > 100 µM
TGI (U251 CNS): 28.7 µM

CN/N=C(\C(=O)Nc1ccc([N+](=O)[O-])cc1[N+](=O)[O-])C1NC(=O)NC1=O (configuration not stated)
TGI (786-0 renal): > 100 µM
TGI (COLO 205 colon): > 100 µM
TGI (HT29 colon): > 100 µM
TGI (LOX IMVI melanoma): > 100 µM
TGI (NCI-H226 lung): > 100 µM
TGI (OVCAR-3 ovarian): > 100 µM
TGI (RPMI-8226 leukemia): > 100 µM
TGI (SF-268 CNS): > 100 µM
TGI (U251 CNS): 96.1 µM

Cc1nn(-c2ccccn2)c2c1C(SC#N)=C(C=O)CC2
TGI (786-0 renal): 25.1 µM
TGI (COLO 205 colon): 22.2 µM
TGI (HS 578T breast): > 100 µM
TGI (HT29 colon): 47 µM
TGI (LOX IMVI melanoma): 29.1 µM
TGI (OVCAR-3 ovarian): 26.5 µM
TGI (RPMI-8226 leukemia): 63 µM
TGI (SF-268 CNS): 33 µM
TGI (U251 CNS): 28.8 µM

CCOC(=O)C1=C(C)N(c2ccc(C)cc2)C2(O)C=CC(=O)C3=C(O)c4ccccc4C(=O)C312 (configuration not stated)
TGI (786-0 renal): > 100 µM
TGI (COLO 205 colon): > 100 µM
TGI (HT29 colon): 65.9 µM
TGI (LOX IMVI melanoma): 96.8 µM
TGI (NCI-H226 lung): > 100 µM
TGI (OVCAR-3 ovarian): > 100 µM
TGI (RPMI-8226 leukemia): 53.5 µM
TGI (SF-268 CNS): > 100 µM
TGI (U251 CNS): > 100 µM

O=c1c(-c2ccc(O)cc2)coc2cc(O)cc(O)c12
TGI (786-0 renal): > 100 µM
TGI (COLO 205 colon): > 100 µM
TGI (HS 578T breast): > 100 µM
TGI (HT29 colon): > 100 µM
TGI (NCI-H226 lung): > 100 µM
TGI (RPMI-8226 leukemia): > 100 µM
TGI (SF-268 CNS): > 100 µM
TGI (U251 CNS): > 100 µM

CC(=O)Nc1ccc(/C=C(\NC(=O)c2ccccc2)C(=O)NNS(=O)(=O)c2ccc(C)cc2)cc1
TGI (COLO 205 colon): 71.2 µM
TGI (HT29 colon): > 100 µM
TGI (LOX IMVI melanoma): 38.2 µM
TGI (NCI-H226 lung): > 100 µM
TGI (OVCAR-3 ovarian): > 100 µM
TGI (RPMI-8226 leukemia): 49 µM
TGI (SF-268 CNS): > 100 µM
TGI (U251 CNS): > 100 µM

Oc1ccc2ccccc2c1OCc1nnc(CCCCCCCCc2nnc(COc3c(O)ccc4ccccc34)o2)o1
TGI (786-0 renal): > 100 µM
TGI (COLO 205 colon): > 100 µM
TGI (HT29 colon): > 100 µM
TGI (NCI-H226 lung): > 100 µM
TGI (RPMI-8226 leukemia): > 100 µM
TGI (SF-268 CNS): > 100 µM
TGI (U251 CNS): > 100 µM

C[n+]1c(-c2ccc(/C=N/Nc3ccnc(N/N=C/c4ccc(-c5cn6ccccc6[n+]5C)cc4)n3)cc2)cn2ccccc21
TGI (786-0 renal): > 100 µM
TGI (COLO 205 colon): > 100 µM
TGI (HS 578T breast): 93.1 µM
TGI (HT29 colon): > 100 µM
TGI (RPMI-8226 leukemia): 73.3 µM
TGI (SF-268 CNS): > 100 µM

c1ccc(CNc2ncnc3n[nH]nc23)cc1
TGI (786-0 renal): > 100 µM
TGI (COLO 205 colon): > 100 µM
TGI (HT29 colon): > 100 µM
TGI (LOX IMVI melanoma): > 100 µM
TGI (NCI-H226 lung): > 100 µM
TGI (OVCAR-3 ovarian): > 100 µM
TGI (U251 CNS): > 100 µM

CCOC(=O)c1cn(C)nc1N/C(C)=C\C(=O)c1ccccc1
TGI (786-0 renal): > 100 µM
TGI (COLO 205 colon): > 100 µM
TGI (HS 578T breast): > 100 µM
TGI (HT29 colon): > 100 µM
TGI (LOX IMVI melanoma): > 100 µM
TGI (NCI-H226 lung): > 100 µM
TGI (OVCAR-3 ovarian): > 100 µM
TGI (SF-268 CNS): > 100 µM
TGI (U251 CNS): > 100 µM

CC(=O)[C@H]1CCC2[C@@H]3CC=C4C(O)C(OS(=O)(=O)O)CC[C@]4(C)C3CC[C@@]21C (some centres not stated)
TGI (COLO 205 colon): > 100 µM
TGI (HT29 colon): > 100 µM
TGI (LOX IMVI melanoma): > 100 µM
TGI (NCI-H226 lung): > 100 µM
TGI (OVCAR-3 ovarian): > 100 µM
TGI (RPMI-8226 leukemia): > 100 µM
TGI (SF-268 CNS): > 100 µM
TGI (U251 CNS): > 100 µM

C=C1CC(OC)(C(O)C(=O)N[C@H]2OCO[C@H]3C2O[C@H](C[C@H](O)COC)C(C)(C)C3OC)O[C@H](C)[C@@H]1C (some centres not stated)
TGI (COLO 205 colon): > 0.00772 µM
TGI (HT29 colon): > 0.00772 µM
TGI (NCI-H226 lung): > 0.00772 µM
TGI (OVCAR-3 ovarian): > 0.00772 µM
TGI (RPMI-8226 leukemia): > 0.00772 µM
TGI (SF-268 CNS): > 0.00772 µM
TGI (U251 CNS): > 0.00772 µM

CN(C)C=Nc1nncc2n[nH]nc12
TGI (786-0 renal): > 100 µM
TGI (COLO 205 colon): > 100 µM
TGI (HS 578T breast): > 100 µM
TGI (HT29 colon): > 100 µM
TGI (NCI-H226 lung): > 100 µM
TGI (OVCAR-3 ovarian): > 100 µM
TGI (RPMI-8226 leukemia): > 100 µM
TGI (SF-268 CNS): > 100 µM
TGI (U251 CNS): > 100 µM

CCC1CCC2c3c([nH]c4ccccc34)C3C(=O)N(c4ccc(OC)cc4)C(=O)C3C2C1 (configuration not stated)
TGI (786-0 renal): > 100 µM
TGI (COLO 205 colon): > 100 µM
TGI (HS 578T breast): 66.8 µM
TGI (HT29 colon): > 100 µM
TGI (NCI-H226 lung): > 100 µM
TGI (OVCAR-3 ovarian): 41.9 µM
TGI (RPMI-8226 leukemia): > 100 µM
TGI (SF-268 CNS): > 100 µM
TGI (U251 CNS): 36.2 µM

CN(CCN(C)C(=O)CCn1ccc(=O)[nH]c1=O)C(=O)CCn1ccc(=O)[nH]c1=O
TGI (786-0 renal): > 100 µM
TGI (COLO 205 colon): > 100 µM
TGI (HT29 colon): > 100 µM
TGI (LOX IMVI melanoma): > 100 µM
TGI (NCI-H226 lung): > 100 µM
TGI (OVCAR-3 ovarian): > 100 µM
TGI (RPMI-8226 leukemia): > 100 µM
TGI (SF-268 CNS): > 100 µM
TGI (U251 CNS): > 100 µM

O=C(NCCCCNCCCNC(=O)OCc1ccccc1)OCc1ccccc1
TGI (786-0 renal): 55.5 µM
TGI (COLO 205 colon): 33.8 µM
TGI (HS 578T breast): 88.8 µM
TGI (HT29 colon): 37.7 µM
TGI (NCI-H226 lung): > 100 µM
TGI (OVCAR-3 ovarian): > 100 µM
TGI (RPMI-8226 leukemia): > 100 µM
TGI (SF-268 CNS): > 100 µM
TGI (U251 CNS): > 100 µM

O=C1OC(c2ccccc2)=N/C1=C/N1CCCC1C(=O)O (configuration not stated)
TGI (786-0 renal): > 100 µM
TGI (COLO 205 colon): > 100 µM
TGI (HT29 colon): > 100 µM
TGI (LOX IMVI melanoma): > 100 µM
TGI (NCI-H226 lung): > 100 µM
TGI (OVCAR-3 ovarian): > 100 µM
TGI (RPMI-8226 leukemia): > 100 µM
TGI (SF-268 CNS): > 100 µM
TGI (U251 CNS): > 100 µM

c1ccc(COc2cccc3cccnc23)cc1
TGI (786-0 renal): > 100 µM
TGI (COLO 205 colon): > 100 µM
TGI (HT29 colon): > 100 µM
TGI (LOX IMVI melanoma): > 100 µM
TGI (NCI-H226 lung): > 100 µM
TGI (OVCAR-3 ovarian): > 100 µM
TGI (RPMI-8226 leukemia): > 100 µM
TGI (SF-268 CNS): 88.4 µM

COc1ccc(NC(=S)NNC(=O)c2cc(-c3ccccc3)nc3ccccc23)cc1
TGI (786-0 renal): 40.5 µM
TGI (COLO 205 colon): 97.4 µM
TGI (HS 578T breast): 75.5 µM
TGI (HT29 colon): 39.3 µM
TGI (NCI-H226 lung): 42.8 µM
TGI (OVCAR-3 ovarian): 33.1 µM
TGI (RPMI-8226 leukemia): 43.2 µM
TGI (SF-268 CNS): 90.1 µM
TGI (U251 CNS): 38.5 µM

O=S(=O)(/N=C1/SC(=Nc2ccccc2)N(c2ccccc2)/C1=N/S(=O)(=O)c1ccccc1)c1ccccc1
TGI (786-0 renal): 41.1 µM
TGI (COLO 205 colon): 64.1 µM
TGI (HS 578T breast): > 100 µM
TGI (HT29 colon): 48.1 µM
TGI (NCI-H226 lung): 45.7 µM
TGI (RPMI-8226 leukemia): 44.6 µM
TGI (U251 CNS): 70.7 µM

CC1(C)CC(=O)C(=CN2C(=O)CNC2=S)C(=O)C1
TGI (786-0 renal): > 100 µM
TGI (COLO 205 colon): > 100 µM
TGI (HS 578T breast): > 100 µM
TGI (NCI-H226 lung): > 100 µM
TGI (OVCAR-3 ovarian): > 100 µM
TGI (SF-268 CNS): > 100 µM
TGI (U251 CNS): > 100 µM
